Numbering of substitutions follows the chain as printed. Where two headings read alike, the source gives them in different places. Blank lines part the entries; values can stand above or below the molecule they belong to.
Legend:
THP1 cells = experiment: Combination drug screening, Cell Titer Glo, 10 × 10 matrix, THP1 cells; type: cell-based
FLT3 D835Y = target: T1, FLT3 D835Y (Homo sapiens, UniProt P36888, D835Y); experiment: DiscoverX KINOMEscan competition binding, FLT3 D835Y
T1 construct: purchased DiscoverX (KINOMEscan)
T1 sequence (P36888 27-993 D835Y): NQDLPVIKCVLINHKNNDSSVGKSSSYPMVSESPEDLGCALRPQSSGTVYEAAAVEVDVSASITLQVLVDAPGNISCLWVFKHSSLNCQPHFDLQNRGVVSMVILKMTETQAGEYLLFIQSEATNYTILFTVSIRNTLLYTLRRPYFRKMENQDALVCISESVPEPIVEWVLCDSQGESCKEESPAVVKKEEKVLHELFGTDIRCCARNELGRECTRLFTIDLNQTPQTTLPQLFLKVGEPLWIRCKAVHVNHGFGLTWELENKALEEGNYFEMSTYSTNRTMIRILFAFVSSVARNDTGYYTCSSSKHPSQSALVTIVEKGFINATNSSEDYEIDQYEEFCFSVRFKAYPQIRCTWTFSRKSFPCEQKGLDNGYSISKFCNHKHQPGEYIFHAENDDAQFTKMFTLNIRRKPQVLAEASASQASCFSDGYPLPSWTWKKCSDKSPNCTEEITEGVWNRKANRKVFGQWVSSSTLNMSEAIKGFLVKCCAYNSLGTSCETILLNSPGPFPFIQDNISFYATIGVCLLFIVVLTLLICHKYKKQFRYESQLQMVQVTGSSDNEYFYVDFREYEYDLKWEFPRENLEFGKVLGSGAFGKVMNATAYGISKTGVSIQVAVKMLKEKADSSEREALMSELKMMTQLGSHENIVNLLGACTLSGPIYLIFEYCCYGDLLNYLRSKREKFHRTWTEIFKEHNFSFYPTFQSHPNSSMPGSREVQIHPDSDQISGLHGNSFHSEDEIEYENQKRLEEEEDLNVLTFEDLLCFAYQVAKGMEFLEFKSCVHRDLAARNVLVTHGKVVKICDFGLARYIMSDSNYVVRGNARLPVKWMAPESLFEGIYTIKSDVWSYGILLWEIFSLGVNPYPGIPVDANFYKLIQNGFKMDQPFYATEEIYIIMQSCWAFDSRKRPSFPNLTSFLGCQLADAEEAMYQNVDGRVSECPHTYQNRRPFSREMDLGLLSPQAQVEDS

FLT3 K663Q = target: T2, FLT3 K663Q (Homo sapiens, UniProt P36888, K663Q); experiment: DiscoverX KINOMEscan competition binding, FLT3 K663Q
T2 construct: purchased DiscoverX (KINOMEscan)
T2 sequence (P36888 27-993 K663Q): T1 sequence (P36888 27-993 D835Y) with K637Q, Y809D

MOLM14(D835Y) cells = type: cell-based; details: MOLM14(D835Y) cells; for Excess HSA Score: 10 × 10
[1] = combination with (+)-BAY-1251152
[2] = combination with Eprenetapopt/APR-246
[3] = combination with Venetoclax (ABT-199)
[4] = with (+)-BAY-1251152, single compound range 0-10,000 nM or 0-20,000 nM
[5] = with AMG-232, single compound range 0-10,000 nM or 0-20,000 nM
[6] = with AZD-5363, single compound range 0-10,000 nM or 0-20,000 nM
[7] = with Eprenetapopt/APR-246, single compound range 0-10,000 nM or 0-20,000 nM
[8] = with Ivosidenib, single compound range 0-10,000 nM or 0-20,000 nM
[9] = with Lenalidomide, single compound range 0-10,000 nM or 0-20,000 nM
[10] = with Palbociclib, single compound range 0-10,000 nM or 0-20,000 nM
[11] = with Prednisolone, single compound range 0-10,000 nM or 0-20,000 nM
[12] = with SNDX-5613, single compound range 0-10,000 nM or 0-20,000 nM
[13] = with TNO-155, single compound range 0-10,000 nM or 0-20,000 nM
[14] = with Trametinib, single compound range 0-10,000 nM or 0-20,000 nM
[15] = with Ulixertinib, single compound range 0-10,000 nM or 0-20,000 nM
[16] = with Venetoclax (ABT-199), single compound range 0-10,000 nM or 0-20,000 nM

Kd (FLT3 D835Y): 0.69 nM | Kd (FLT3 K663Q): 21 nM
Compound: CC(O)(c1cn2c(-c3ccnc(N[C@H]4CNCC[C@@H]4F)n3)cnc2cn1)C(F)(F)F (single isomer, unassigned) [Compound 72]
Excess HSA Score (THP1 cells; THP1 cells, 10 × 10, combination with (+)-BAY-1251152): −155.7 | Excess HSA Score (THP1 cells; THP1 cells, 10 × 10, combination with AMG-232): 364 | Excess HSA Score (THP1 cells; THP1 cells, 10 × 10, combination with AZD-5363): −371.3 | Excess HSA Score (THP1 cells; THP1 cells, 10 × 10, combination with Eprenetapopt/APR-246): 594.2926 | Excess HSA Score (THP1 cells; THP1 cells, 10 × 10, combination with Ivosidenib): 175.5 | Excess HSA Score (THP1 cells; THP1 cells, 10 × 10, combination with Lenalidomide): 175.9 | Excess HSA Score (THP1 cells; THP1 cells, 10 × 10, combination with Palbociclib): −319 | Excess HSA Score (THP1 cells; THP1 cells, 10 × 10, combination with Prednisolone): 201.6 | Excess HSA Score (THP1 cells; THP1 cells, 10 × 10, combination with SNDX-5613): 342.4 | Excess HSA Score (THP1 cells; THP1 cells, 10 × 10, combination with TNO-155): 908.1 | Excess HSA Score (THP1 cells; THP1 cells, 10 × 10, combination with Trametinib): 354.3 | Excess HSA Score (THP1 cells; THP1 cells, 10 × 10, combination with Ulixertinib): 1146 | Excess HSA Score (THP1 cells; THP1 cells, 10 × 10, combination with Venetoclax (ABT-199)): −1130 | Comments (THP1 cells; THP1 cells, combination with Ivosidenib): Antagonistic | Comments (THP1 cells; THP1 cells, combination with Venetoclax (ABT-199)): Synergistic | Excess HSA Score (MOLM14(D835Y) cells; [1]): 179 | Excess HSA Score (MOLM14(D835Y) cells; combination with AMG-232): −165.4 | Excess HSA Score (MOLM14(D835Y) cells; combination with AZD-5363): −687.9 | Excess HSA Score (MOLM14(D835Y) cells; [2]): −80.14 | Excess HSA Score (MOLM14(D835Y) cells; combination with Ivosidenib): −168.3 | Excess HSA Score (MOLM14(D835Y) cells; combination with Lenalidomide): 407.4 | Excess HSA Score (MOLM14(D835Y) cells; combination with Palbociclib): −390.1 | Excess HSA Score (MOLM14(D835Y) cells; combination with Prednisolone): 717.2 | Excess HSA Score (MOLM14(D835Y) cells; combination with SNDX-5613): −77.23 | Excess HSA Score (MOLM14(D835Y) cells; combination with TNO-155): −797.6 | Excess HSA Score (MOLM14(D835Y) cells; combination with Trametinib): 218.5 | Excess HSA Score (MOLM14(D835Y) cells; combination with Ulixertinib): 672.6 | Excess HSA Score (MOLM14(D835Y) cells; [3]): −1396 | Comments (MOLM14(D835Y) cells; [1]): Antagonistic | Comments (MOLM14(D835Y) cells; [3]): Synergistic

Kd (FLT3 D835Y): 0.15 nM | Kd (FLT3 K663Q): 2.9 nM
Compound: COc1cc2ncc(-c3ccnc(N[C@@H]4CCCNC4)n3)n2cc1C(C)(C)O [Compound 44, (R)-2-(7-methoxy-3-(2-(piperidin-3-ylamino)pyrimidin-4-yl)imidazo[1,2-a]pyridin-6-yl)propan-2-ol]
Comments (THP1 cells; [4]): Synergistic | Excess HSA Score (THP1 cells; [4]): −516.5 | Comments (THP1 cells; [5]): Antagonistic | Excess HSA Score (THP1 cells; [5]): 733.5 | Comments (THP1 cells; [6]): Antagonistic | Excess HSA Score (THP1 cells; [6]): 35.78 | Comments (THP1 cells; [7]): Antagonistic | Excess HSA Score (THP1 cells; [7]): 460.1 | Comments (THP1 cells; [8]): Synergistic | Excess HSA Score (THP1 cells; [8]): −47.26 | Comments (THP1 cells; [9]): Antagonistic | Excess HSA Score (THP1 cells; [9]): 877.5 | Comments (THP1 cells; [10]): Synergistic | Excess HSA Score (THP1 cells; [10]): −764 | Comments (THP1 cells; [11]): Antagonistic | Excess HSA Score (THP1 cells; [11]): 68.4575 | Comments (THP1 cells; [12]): Antagonistic | Excess HSA Score (THP1 cells; [12]): 337.7 | Comments (THP1 cells; [13]): Synergistic | Excess HSA Score (THP1 cells; [13]): −62.85 | Comments (THP1 cells; [14]): Synergistic | Excess HSA Score (THP1 cells; [14]): −453.2 | Comments (THP1 cells; [15]): Synergistic | Excess HSA Score (THP1 cells; [15]): −572.2 | Comments (THP1 cells; [16]): Synergistic | Excess HSA Score (THP1 cells; [16]): −1159 | Excess HSA Score (MOLM14(D835Y) cells; [1]): −808.4 | Excess HSA Score (MOLM14(D835Y) cells; combination with AMG-232): −620.9 | Excess HSA Score (MOLM14(D835Y) cells; combination with AZD-5363): −290.5 | Excess HSA Score (MOLM14(D835Y) cells; [2]): 75.21 | Excess HSA Score (MOLM14(D835Y) cells; combination with Ivosidenib): 21.01 | Excess HSA Score (MOLM14(D835Y) cells; combination with Lenalidomide): 270.3924 | Excess HSA Score (MOLM14(D835Y) cells; combination with Palbociclib): −370.2 | Excess HSA Score (MOLM14(D835Y) cells; combination with Prednisolone): 409.4 | Excess HSA Score (MOLM14(D835Y) cells; combination with SNDX-5613): 3.1084 | Excess HSA Score (MOLM14(D835Y) cells; combination with TNO-155): −655.3 | Excess HSA Score (MOLM14(D835Y) cells; combination with Trametinib): −420 | Excess HSA Score (MOLM14(D835Y) cells; combination with Ulixertinib): −254.1 | Excess HSA Score (MOLM14(D835Y) cells; [3]): −1120.4885 | Comments (MOLM14(D835Y) cells; combination with SNDX-5613): Antagonistic | Comments (MOLM14(D835Y) cells; [3]): Synergistic
